# Assay results as given in BindingDB's records for doi:10.1021/jm0208119 (Westfälische Wilhelms-Universität Münster, 2002).
# Target: histone deacetylase HD-1, RPD3 homologue (Zea mays)
# Assay: Inhibition of in vitro enzyme activity measured in a highly purified maize Histone deacetylase 1 preparation
row,Structure (SMILES),IC50 [nM]
1,O=C(CCCCCCC(=O)N[C@@H](Cc1ccccc1)C(=O)NCc1ccccc1)NO [Octanedioic acid ((S)-1-benzylcarbamoyl-2-phenyl-ethyl)-amide hydroxyamide],40
2,O=C(CCCCCCC(=O)N[C@@H](Cc1ccccc1)C(=O)NCCc1ccccc1)NO [Octanedioic acid hydroxyamide ((S)-1-phenethylcarbamoyl-2-phenyl-ethyl)-amide],25
